In patent US20210037856A1, “Ruminant Feed Composition Comprising A Muramidase” (Novozymes A/S, priority 2018, published 2021):
Where a name gives a salt, the structure may show the parent alone.

Columns and labels:
Staphylococcus aureus = details: does not cleave N,6-O-diacetylmuramic acid in cell walls; Masschalck et al. 2002; cited from earlier work
rumen fluid [1] = test: in vitro ruminal fermentation, 22 muramidases, 12 h (Example 4); design: species or system cow; DMd: unit not given here; details: PC (Monensin) 0.01 or 0.10 mg/40 ml, not stated which
Description: (§1) The trial was performed by Alimetrics (Alimetrics Ltd, Koskelontie 19B, FIN-02920 Espoo, Finland) using 120 mL serum bottles as fermentation vessels. The fermentation preparation and procedure is presented in Kettunen et al., (Kettunen H., J. Vuorenmaa, D. Gaffney and J. Apajalahti (2016): Yeast hydrolysate product enhances ruminal fermentation in vitro. J. App. Anim. Nutr., Vol. 4; e1; page 1 of 7). In short, the method is as follows: All bottles were initially filled with 1 g of feed DM composed from corn silage, barley meal, soybean meal, at the amounts of 0.5, 0.4, and 0.1 g DM, respectively. Subsequently, the bottles were flushed with CO2 passed through a hot copper catalyst for O2 scavenging and sealed with thick butyl rubber stopper. Anaerobic, reduced and temperature adjusted (+38° C.) artificial saliva buffer solution (Modified from Agriculture Handbook No. 379, (USDA, Washington, D.C., 1975), volume of 37.65 ml), freshly strained rumen fluid (5% inoculum; volume of 2 ml), and test compounds (volume of 0.35 ml) was introduced into the fermentation vessels under the oxygen-free CO2 flow. Following rumen fluid was collected from a ruminal cannulated cow. Rumen fluid was pumped directly from the rumen into a preheated thermos and immediately closed, and transported to Alimetrics laboratory. The rumen fluid was used for inoculation within 2 hours of harvest. To ensure that both liquid and particle associated ruminal microbes were present in the inoculum both fractions were obtained. Liquid and solid fractions were strained through a metal mesh (grid size 3×3 mm) under anaerobic conditions prior to buffer dilution.
(§2) Following inoculation with rumen fluid, buffer and test solution, the vessels were sealed with the butyl rubber septum's. All fermentation vessels were inoculated in random order to prevent the possible block effects. Inoculation time for each fermentation vessel was registered and was taken into account op on each sampling to ensure that duration of the fermentation was the same for each sample. The fermentation was continued for 12 h in a gyratory shaker at +38° C. Fermentation gas produced was measured and relived by collection of the fermentation gas in syringes at time 3, 6, 9, and 12 h. Feed residues were measured after 12 h fermentation.
The trial design was a dosage response, complete randomized design with 27 treatments using 145 fermentation vessels according to table 5. […] Negative control was supplemented with the same buffer solution that was used for diluting the enzymes to reach the same liquid volume as the supplemented fermentation vessels. The ionophore Monensin (Monensin sodium salt, 90-95% TLC (Sigma Aldrich; Product code: M5273-1G)) was chosen as a positive control because it is a ruminants feed additive that affects volatile fatty acids (VFA) production.
(§3) Liquid Samples Obtained at 12 h were Analyzed for the Concentration of VFA (Acetate, Propionate, butyrate, and valerate) by GC-FID using a glass column packed with 80/120 carbopack B-DA/4% Carbowax stationary and helium as a carrier gas (Kettunen H., J. Vuorenmaa, T. Rinttilä, H. Grönberg, E. Valkonen and J. Apajalahti (2015): Natural resin acid-enriched composition as a modulator of intestinal microbiota and performance enhancer in broiler chicken. J. App. Anim. Nutr., Vol. 3; e2; page 1 of 9).
(§4) Digestibility of dry matter was quantified by determination of dry matter in the original feed matrix and in all fermentation vessels after 12 h of fermentation. Feed residues from the fermentation vessels were obtained by filtration tared sintered glass filters, washed with water and dried at 105° C. for 12 hours. Finally, the glass filters are weighed for the residual feed dry matter.
(§5) Dry matter digestibility (DMd) was calculated at the ratio between feed residues after end fermentation and the dry matter fed. […]

rumen fluid [2] = test: in vitro ruminal fermentation, 13 muramidases, 12 h (Example 3); design: species or system cow; details: PC at dosage 0.01 mg/40 mL
Description: as §1, with “collection” for “was collected”
as §2, with “solution” for “solution,”
The trial design was a dosage response, complete randomized design with 28 treatments using 150 fermentation vessels according to table 3. The 13 muramidase solutions were diluted to the concentration needed in enzyme buffer (BSA, Tween 20, acetate-buffer, Calcium, NaOH, adjusted to pH 6). Negative control was supplemented with the same buffer solution that was used for diluting the enzymes to reach the same liquid volume as the supplemented fermentation vessels. The ionophore Monensin (Monensin sodium salt, 90-95% TLC (Sigma Aldrich; Product code: M5273-1G)) was chosen as a positive control because it is a ruminants feed additive that affects volatile fatty acids (VFA) production.
as §3, with “samples obtained” for “Samples Obtained”, “analyzed” for “Analyzed”, “concentration” for “Concentration”, “(acetate, propionate,” for “(Acetate, Propionate,”
as §4, §5

[3] = dry matter digestibility after 12 h
[4] = summed carbon in VFA after 12 h

Compound	lysis of Staphylococcus aureus (Staphylococcus aureus)	Acetate (rumen fluid [1]; VFA production after 12 h) [mmol/L]	Butyrate (rumen fluid [1]; VFA production after 12 h) [mmol/L]	Propionate (rumen fluid [1]; VFA production after 12 h) [mmol/L]	DMd (rumen fluid [1]; [3])	Total VFA (rumen fluid [1]; sum of VFA after 12 h) [mmol/L]	Carbon in VFA (rumen fluid [1]; [4]) [mmol/L]	Acetate (rumen fluid [2]; VFA production after 12 h) [mmol/L]	Butyrate (rumen fluid [2]; VFA production after 12 h) [mmol/L]	Propionate (rumen fluid [2]; VFA production after 12 h) [mmol/L]	DMd (rumen fluid [2]; [3])	Total VFA (rumen fluid [2]; sum of VFA after 12 h) [mmol/L]	Carbon in VFA (rumen fluid [2]; [4]) [mmol/L]
Muramidase extracted from hen egg white: GH22 muramidase from hen egg white, primary product available on the commercial market	unable to lyse												
CC[C@@]1([C@@H]2O[C@@H]([C@H]3O[C@@](O)(CO)[C@H](C)C[C@@H]3C)C[C@@H]2C)CC[C@H]([C@]2(C)CC[C@]3(C[C@H](O)[C@@H](C)[C@@H]([C@@H](C)[C@@H](OC)[C@H](C)C(=O)O)O3)O2)O1 [PC, Monensin sodium salt, reference compound]		44.2	3.7	42.8	0.51	91	234	47.5	3.86	46.4	0.55	98	251
